Reference: paper PMC10709440, “High-throughput ligand profile characterization in novel cell lines expressing seven heterologous insect olfactory receptors for the detection of volatile plant biomarkers” (Scientific Reports, 2023)
Like-named read-outs stand apart in the source and are kept apart here.

Key:
Drosophila OR98a = biological target: T1, Drosophila OR98a (Drosophila melanogaster, UniProt Q9VAZ3); assay: Calcium ion fluorescence (GCaMP6) assay, OR98a stable HEK293 cell line; type: cell-based; conditions: for OR98a response (VUAA1-normalized) at 1 μM / OR98a response (VUAA1-normalized) at 10 μM / OR98a response (VUAA1-normalized) at 100 μM: OR98a cell line; for OR98a response (VUAA1-normalized) at 1 μM: VOC concentration 1 μM; for OR98a response (VUAA1-normalized) at 10 μM: VOC concentration 10 μM; for OR98a response (VUAA1-normalized) at 100 μM: VOC concentration 100 μM
T1 construct: expressed in transfected cells
T1 sequence (Q9VAZ3 1-397): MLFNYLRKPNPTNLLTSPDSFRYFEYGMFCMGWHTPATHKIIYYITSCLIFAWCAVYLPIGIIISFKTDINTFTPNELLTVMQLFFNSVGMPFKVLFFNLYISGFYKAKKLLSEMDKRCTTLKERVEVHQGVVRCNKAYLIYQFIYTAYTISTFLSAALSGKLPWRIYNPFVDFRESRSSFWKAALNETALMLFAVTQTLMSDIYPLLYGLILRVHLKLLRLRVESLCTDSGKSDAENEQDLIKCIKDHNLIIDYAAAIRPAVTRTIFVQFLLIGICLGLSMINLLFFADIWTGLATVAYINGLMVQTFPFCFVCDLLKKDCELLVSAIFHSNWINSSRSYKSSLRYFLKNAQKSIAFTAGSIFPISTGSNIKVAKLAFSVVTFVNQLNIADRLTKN
T1 sequence (Q9VNB5 1-486 partner): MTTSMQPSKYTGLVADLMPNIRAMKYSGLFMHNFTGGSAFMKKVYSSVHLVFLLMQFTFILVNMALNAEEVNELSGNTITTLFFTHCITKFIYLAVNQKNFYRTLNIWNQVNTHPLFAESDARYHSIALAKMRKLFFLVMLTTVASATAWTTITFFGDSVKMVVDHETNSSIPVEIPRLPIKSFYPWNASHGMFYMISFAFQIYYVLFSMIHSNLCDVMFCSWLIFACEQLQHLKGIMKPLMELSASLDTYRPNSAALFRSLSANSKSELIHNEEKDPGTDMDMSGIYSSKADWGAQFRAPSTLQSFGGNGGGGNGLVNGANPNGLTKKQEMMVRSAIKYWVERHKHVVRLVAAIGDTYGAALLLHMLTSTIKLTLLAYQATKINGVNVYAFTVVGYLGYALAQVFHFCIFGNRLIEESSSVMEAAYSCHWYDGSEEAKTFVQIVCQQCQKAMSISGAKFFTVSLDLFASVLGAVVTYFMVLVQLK
Outline: (§1)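 HEK293 lines stably expressing each Drosophila OR with GCaMP6, doxycycline-induced (1 μg/mL) 48 or 72 h. Fluorescence recorded 5 s baseline then 30 s after VOC injection at pH 7.3; ΔF=(FMAX−F0)/F0, normalized to 50 µM VUAA1 response per line, triplicate wells averaged; concentration series 0.01–100 μM.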

Drosophila OR85b = biological target: T2, Drosophila OR85b (Drosophila melanogaster, UniProt Q9VHQ7); assay: Calcium ion fluorescence (GCaMP6) assay, OR85b stable HEK293 cell line; type: cell-based; conditions: for OR85b response (VUAA1-normalized) at 1 μM / OR85b response (VUAA1-normalized) at 10 μM / OR85b response (VUAA1-normalized) at 100 μM / Average response: OR85b cell line; for OR85b response (VUAA1-normalized) at 1 μM: VOC concentration 1 μM; for OR85b response (VUAA1-normalized) at 10 μM: VOC concentration 10 μM; for OR85b response (VUAA1-normalized) at 100 μM: VOC concentration 100 μM; for Average response: VUAA1-normalized response, mean of biological replicates
T2 construct: expressed in transfected cells
T2 sequence (Q9VHQ7 1-390): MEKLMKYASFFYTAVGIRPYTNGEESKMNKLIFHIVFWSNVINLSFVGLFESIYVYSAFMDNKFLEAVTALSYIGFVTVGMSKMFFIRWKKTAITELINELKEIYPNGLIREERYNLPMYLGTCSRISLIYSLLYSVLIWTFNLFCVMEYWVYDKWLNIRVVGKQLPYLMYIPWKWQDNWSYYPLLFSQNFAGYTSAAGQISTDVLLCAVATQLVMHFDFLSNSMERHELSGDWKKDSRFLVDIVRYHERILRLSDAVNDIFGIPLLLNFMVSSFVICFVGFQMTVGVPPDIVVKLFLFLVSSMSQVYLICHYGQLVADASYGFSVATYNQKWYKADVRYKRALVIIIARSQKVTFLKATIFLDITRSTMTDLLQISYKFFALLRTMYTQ
T2 sequence (Q9VNB5 1-486 partner): T1 sequence (Q9VNB5 1-486 partner)
Outline: as §1

[1] = HEK293, read-out: Average response
[2] = ligand concentration 1 (unit not given), threshold 0.05, below shown as 0
[3] = ligand concentration 10 (unit not given), threshold 0.05, below shown as 0
[4] = ligand concentration 100 (unit not given), threshold 0.05, below shown as 0
[5] = ligand concentration 1 (unit not given), 0.05 threshold, values below shown as 0
[6] = ligand concentration 10 (unit not given), 0.05 threshold, values below shown as 0
[7] = ligand concentration 100 (unit not given), 0.05 threshold, values below shown as 0
[8] = HEK293, read-out: OR98a response (VUAA1-normalized response)
[9] = HEK293, read-out: OR85b response (VUAA1-normalized response)

Structure (SMILES) | activation at 1 µM (Drosophila OR98a; [1]) | activation at 10 µM (Drosophila OR98a; [1]) | activation at 100 µM (Drosophila OR98a; [1]) | OR98a response (VUAA1-normalized) at 1 μM (Drosophila OR98a) | OR98a response (VUAA1-normalized) at 10 μM (Drosophila OR98a) | OR98a response (VUAA1-normalized) at 100 μM (Drosophila OR98a) | DF norm AVERAGE OR98a (Drosophila OR98a; [2]) | DF norm AVERAGE OR98a (Drosophila OR98a; [3]) | DF norm AVERAGE OR98a (Drosophila OR98a; [4]) | OR85b response (VUAA1-normalized) at 1 μM (Drosophila OR85b) | OR85b response (VUAA1-normalized) at 10 μM (Drosophila OR85b) | OR85b response (VUAA1-normalized) at 100 μM (Drosophila OR85b) | Average response (Drosophila OR85b; cc. 1 µM) | Average response (Drosophila OR85b; cc. 10 µM) | Average response (Drosophila OR85b; cc. 100 µM) | DF norm AVERAGE OR85b (Drosophila OR85b; [2]) | DF norm AVERAGE OR85b (Drosophila OR85b; [3]) | DF norm AVERAGE OR85b (Drosophila OR85b; [4]) | further results
C=C1CCC2(C(C)C)CC12 (stereo not drawn) [sabinene] | 0% | 10% | 2% | 0.00 | 0.10 | 0.00 | 0 | 0.1017 | 0 | 0.0647 | 0.00 | 0.09 | 0.0647 | 0.0439 | 0.09 | 0.06468 | 0 | 0.08701 | –
C=Cc1ccccc1 [styrene] | 4.43% | 0% | 1.16% | 0.00 | 0.00 | 0.00 | – | – | – | 0.00 | 0.00 | 0.00 | 0.00 | 0.00 | 0.0181 | – | – | – | DF norm AVERAGE OR98a (Drosophila OR98a; [5]): 0; DF norm AVERAGE OR98a (Drosophila OR98a; [6]): 0; DF norm AVERAGE OR98a (Drosophila OR98a; [7]): 0; DF norm AVERAGE OR85b (Drosophila OR85b; [5]): 0; DF norm AVERAGE OR85b (Drosophila OR85b; [6]): 0; DF norm AVERAGE OR85b (Drosophila OR85b; [7]): 0
CCCC(=O)OCC [ethyl butyrate] | 3.54% | 0% | 6.6% | – | – | – | 0 | 0 | 0.06596 | – | – | – | 0.00 | 0.0253 | 0.0224 | 0 | 0 | 0 | activation at 1 µM (Drosophila OR98a; [8]): 0%; activation at 10 µM (Drosophila OR98a; [8]): 0%; activation at 100 µM (Drosophila OR98a; [8]): 6.6%; activation at 1 µM (Drosophila OR85b; [9]): 0%; activation at 10 µM (Drosophila OR85b; [9]): 0%; activation at 100 µM (Drosophila OR85b; [9]): 0%
